Measurements: patent US11879012B2, “Method of modulating cell proliferation” (METRO NORTH HOSPITAL AND HEALTH SERVICE, priority 2018, dated 2024)

Test system: corneal-limbal epithelial cells
Assay: MTT conversion / proliferation of primary corneal-limbal epithelial cells
Type: cell-based, human
Settings: 40 μM Y27632 alone; FIG. 5D
Text: Cultures of non-transformed human corneal epithelial cells were established from either enzymatically-dissociated sample of corneal-scleral tissue or from pieces of intact corneal limbus seeded into culture dishes (i.e., explant method). In either case, corneal tissue from cadaveric donors was used. Each tissue sample was acquired with consent and ethics approval our HREC Approval No. 0800000807) in the form of either surgical cut-offs or intact corneas that had been rejected by the eye bank (e.g., poor endothelial cell density).
For dissociated cultures, washed tissue samples were cut into quarters before being incubated for 1 hour at 37° C. in 0.25% (w/v) Dispase solution (Life Technologies). Epithelial tissue was subsequently harvested from the limbus and peripheral cornea by scraping with a pipette tip, then dissociated by digestion in 0.05% Trypsin/0.02% EDTA (Sigma) for 5 minutes at 37° C. The resulting cell suspension was washed and resuspended in complete culture medium. […]
To initiate cultures from whole tissue, each well of a 6-well culture plate (approximately 6×10 cm^2) was initially filled with 2 mL, of 100% FBS and incubated for at least 30 minutes at 37° C. […] Over subsequent days, each p0 culture was routinely monitored for evidence of epithelial outgrowth until a confluent sheet measuring approximately 2-3 cm^2 had been achieved (approximately 1-2 weeks). […]

C[C@@H](N)[C@H]1CC[C@H](C(=O)Nc2ccncc2)CC1 [Y27632]
MTT conversion (cell proliferation): dose-dependent increase in MTT conversion
